In US9642831B2, “Substituted chromanes and method of use” (AbbVie S.á.r.l., priority 2014, dated 2017):

Target: F508delCFTR (Homo sapiens, UniProt P13569, DEL508-508)
Test: Cell Surface Expression-Horse Radish Peroxidase (CSE-HRP) assay
Assay type: cell-based
Set-up: expressed in transfected cells; host or cells: CFBE41o- human lung derived epithelial cell line, doxycycline-inducible
Conditions: CFBE4lo-F508delCFTR-HRP cells; for EC50: 18-24 hours at 33° C., 8-point curve, highest concentration 20 μM, luminescence readout; for Emax: maximum % activity at any tested concentration, normalized to on-plate positive control (3 μM Example 1)
Summary of the method: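 Following 18-24 h compound exposure at 33° C. Expression was doxycycline-induced beforehand. % activity versus DMSO and a 3 μM corrector control gave maximum activity and EC50 from a variable-Hill sigmoidal fit.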

Sequence of F508delCFTR (P13569 with tags, fused parts or gaps DEL508-508): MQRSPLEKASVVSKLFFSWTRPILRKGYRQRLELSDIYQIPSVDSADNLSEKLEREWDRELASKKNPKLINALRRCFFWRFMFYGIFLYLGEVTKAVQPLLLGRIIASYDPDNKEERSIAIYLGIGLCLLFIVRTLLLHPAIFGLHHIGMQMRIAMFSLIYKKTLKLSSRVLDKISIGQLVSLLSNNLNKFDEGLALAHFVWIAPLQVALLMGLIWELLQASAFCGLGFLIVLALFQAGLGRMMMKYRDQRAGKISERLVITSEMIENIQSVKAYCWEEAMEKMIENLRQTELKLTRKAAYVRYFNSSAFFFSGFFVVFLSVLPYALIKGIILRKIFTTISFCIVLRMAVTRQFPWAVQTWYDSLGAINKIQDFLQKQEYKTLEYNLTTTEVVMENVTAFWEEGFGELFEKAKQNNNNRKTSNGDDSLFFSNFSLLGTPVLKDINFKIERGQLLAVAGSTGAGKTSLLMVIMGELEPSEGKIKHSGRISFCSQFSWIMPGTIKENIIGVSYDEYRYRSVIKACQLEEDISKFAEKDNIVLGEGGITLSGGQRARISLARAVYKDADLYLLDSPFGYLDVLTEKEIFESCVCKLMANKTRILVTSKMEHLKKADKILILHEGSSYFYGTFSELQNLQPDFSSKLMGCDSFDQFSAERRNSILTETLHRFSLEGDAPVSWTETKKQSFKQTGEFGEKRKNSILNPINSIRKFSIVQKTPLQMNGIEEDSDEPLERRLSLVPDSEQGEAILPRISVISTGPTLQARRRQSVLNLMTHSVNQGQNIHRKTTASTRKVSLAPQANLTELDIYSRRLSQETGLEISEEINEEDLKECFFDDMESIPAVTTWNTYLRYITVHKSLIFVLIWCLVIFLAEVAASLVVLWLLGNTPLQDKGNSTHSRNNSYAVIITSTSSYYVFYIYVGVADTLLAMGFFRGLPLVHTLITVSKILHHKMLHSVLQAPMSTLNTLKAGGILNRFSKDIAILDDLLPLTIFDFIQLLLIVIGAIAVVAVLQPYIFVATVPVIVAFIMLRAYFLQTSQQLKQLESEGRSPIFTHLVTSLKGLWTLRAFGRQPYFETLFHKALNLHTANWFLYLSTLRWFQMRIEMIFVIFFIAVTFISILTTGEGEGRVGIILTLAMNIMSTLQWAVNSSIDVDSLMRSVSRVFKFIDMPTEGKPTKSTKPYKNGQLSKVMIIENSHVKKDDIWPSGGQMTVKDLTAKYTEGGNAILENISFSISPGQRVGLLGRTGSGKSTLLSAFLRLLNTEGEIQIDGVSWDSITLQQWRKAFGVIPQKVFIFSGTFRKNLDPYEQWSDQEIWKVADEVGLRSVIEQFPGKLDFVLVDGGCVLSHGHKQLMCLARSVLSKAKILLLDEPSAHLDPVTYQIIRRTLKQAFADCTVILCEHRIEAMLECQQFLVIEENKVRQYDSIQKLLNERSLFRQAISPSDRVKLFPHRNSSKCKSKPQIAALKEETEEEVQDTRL

| EC50 [µM] | Emax [%] | Structure (SMILES) |
| --- | --- | --- |
| 3.2 | 54 | COc1ccc2c(c1)O[C@@H](C(=O)N1CCCOCC1)C[C@H]2NC(=O)C1(c2ccc3c(c2)OC(F)(F)O3)CC1 (racemic) [Example 175, rac-1-(2,2-difluoro-1,3-benzodioxol-5-yl)-N-[(2R,4R)-7-methoxy-2-(1,4-oxazepan-4-ylcarbonyl)-3,4-dihydro-2H-chromen-4-yl]cyclopropanecarboxamide] |
| 0.04 | 131 | COC(=O)c1ccc([C@H]2C[C@@H](NC(=O)C3(c4cc5c(cc4Br)OC(F)(F)O5)CC3)c3ccc(OC)cc3O2)cc1 [Example 202F, methyl 4-((2R,4R)-4-(1-(6-bromo-2,2-difluorobenzo[d][1,3]dioxol-5-yl)cyclopropanecarboxamido)-7-methoxychroman-2-yl)benzoate] |
| 0.35 | 113 | COC(=O)c1cccc([C@H]2C[C@@H](NC(=O)C3(c4ccc5c(c4)OC(F)(F)O5)CC3)c3ccc(C)cc3O2)c1 [Example 18, methyl 3-[(2R,4R)-4-({[1-(2,2-difluoro-1,3-benzodioxol-5-yl)cyclopropyl]carbonyl}amino)-7-methyl-3,4-dihydro-2H-chromen-2-yl]benzoate] |
| 3.6 | 70 | COC(=O)[C@H]1C[C@H](NC(=O)C2(c3ccc4c(c3)OC(F)(F)O4)CC2)c2ccc(OC)cc2O1 (racemic) [Example 131, methyl rac-(2R,4S)-4-({[1-(2,2-difluoro-1,3-benzodioxol-5-yl)cyclopropyl]carbonyl}amino)-7-methoxy-3,4-dihydro-2H-chromene-2-carboxylate] |
| 1.33 | 89 | COC(=O)c1ccc2c(c1)OCCC2NC(=O)C1(c2ccc3c(c2)OC(F)(F)O3)CC1 (stereo not drawn) [Example 45, methyl 4-({[1-(2,2-difluoro-1,3-benzodioxol-5-yl)cyclopropyl]carbonyl}amino)-3,4-dihydro-2H-chromene-7-carboxylate] |
| 0.87 | 89 | O=C(NC1CC(c2ccc(Cl)cc2)Oc2ccccc21)C1(c2ccc3c(c2)OC(F)(F)O3)CC1 (stereo not drawn) [Example 68, N-[2-(4-chlorophenyl)-3,4-dihydro-2H-chromen-4-yl]-1-(2,2-difluoro-1,3-benzodioxol-5-yl)cyclopropanecarboxamide] |
| 2.24 | 91 | C[C@]1(C(F)F)C[C@@H](NC(=O)C2(c3ccc4c(c3)OC(F)(F)O4)CC2)c2ccc(Cl)cc2O1 [Example 84, N-[(2R,4R)-7-chloro-2-(difluoromethyl)-2-methyl-3,4-dihydro-2H-chromen-4-yl]-1-(2,2-difluoro-1,3-benzodioxol-5-yl)cyclopropanecarboxamide] |
| 1.13 | 99 | COc1ccc2c(c1)OC1(CCN(C(=O)C(C)(C)CO)CC1)CC2NC(=O)C1(c2ccc3c(c2)OC(F)(F)O3)CC1 (stereo not drawn) [Example 107, 1-(2,2-difluoro-1,3-benzodioxol-5-yl)-N-[1′-(3-hydroxy-2,2-dimethylpropanoyl)-7-methoxy-3,4-dihydrospiro[chromene-2,4′-piperidin]-4-yl]cyclopropanecarboxamide] |
| 1.36 | 92 | COC(=O)c1ccc([C@H]2C[C@H](NC(=O)C3(c4ccc5c(c4)OC(F)(F)O5)CC3)c3ccc(OC)cc3O2)nc1 (stereo in doubt) [Example 159, methyl rel-6-[(2R,4S)-4-({[1-(2,2-difluoro-1,3-benzodioxol-5-yl)cyclopropyl]carbonyl}amino)-7-methoxy-3,4-dihydro-2H-chromen-2-yl]pyridine-3-carboxylate] |
| 3.55 | 49 | COC(=O)c1cccc([C@H]2C[C@@H](NC(=O)C3(c4ccc5c(c4)OC(F)(F)O5)CC3)c3ccc(F)nc3O2)c1 (racemic) [Example 113, methyl rac-3-[(2R,4R)-4-({[1-(2,2-difluoro-1,3-benzodioxol-5-yl)cyclopropyl]carbonyl}amino)-7-fluoro-3,4-dihydro-2H-pyrano[2,3-b]pyridin-2-yl]benzoate] |
| 3.28 | 75 | O=C(N[C@@H]1CC(CF)(CF)Oc2ccccc21)C1(c2ccc3c(c2)OC(F)(F)O3)CC1 [Example 75, N-[(4R)-2,2-bis(fluoromethyl)-3,4-dihydro-2H-chromen-4-yl]-1-(2,2-difluoro-1,3-benzodioxol-5-yl)cyclopropanecarboxamide] |
| 6.81 | 108 | C[C@@]1(C(F)(F)F)C[C@@H](NC(=O)C2(c3ccc4c(c3)OC(F)(F)O4)CC2)c2ccccc2O1 [Example 85, 1-(2,2-difluoro-1,3-benzodioxol-5-yl)-N-[(2S,4R)-2-methyl-2-(trifluoromethyl)-3,4-dihydro-2H-chromen-4-yl]cyclopropanecarboxamide] |
| 0.8 | 69 | COc1ccc2c(c1)O[C@@H](C(=O)NCCc1cccc(O)c1)C[C@H]2NC(=O)C1(c2ccc3c(c2)OC(F)(F)O3)CC1 (racemic) [Example 179, rac-(2R,4R)-4-({[1-(2,2-difluoro-1,3-benzodioxol-5-yl)cyclopropyl]carbonyl}amino)-N-[2-(3-hydroxyphenyl)ethyl]-7-methoxy-3,4-dihydro-2H-chromene-2-carboxamide] |
| 0.94 | 119 | COCCOc1ccc2c(c1)O[C@@H](c1cccc(C(=O)OC)c1)C[C@H]2NC(=O)C1(c2ccc3c(c2)OC(F)(F)O3)CC1 [Example 94, methyl 3-[(2R,4R)-4-({[1-(2,2-difluoro-1,3-benzodioxol-5-yl)cyclopropyl]carbonyl}amino)-7-(2-methoxyethoxy)-3,4-dihydro-2H-chromen-2-yl]benzoate] |
| 4 | 43 | COC(=O)c1ccc2c(c1)[C@H](NC(=O)C1(c3ccc4c(c3)OC(F)(F)O4)CC1)C[C@H](c1cccc(OC)c1)O2 [Example 47, methyl (2R,4R)-4-({[1-(2,2-difluoro-1,3-benzodioxol-5-yl)cyclopropyl]carbonyl}amino)-2-(3-methoxyphenyl)-3,4-dihydro-2H-chromene-6-carboxylate] |
| 1.55 | 65 | COc1ccc2c(c1)O[C@@H](C(=O)NC(C)(C)CO)C[C@H]2NC(=O)C1(c2ccc3c(c2)OC(F)(F)O3)CC1 (racemic) [Example 170, rac-(2R,4R)-4-({[1-(2,2-difluoro-1,3-benzodioxol-5-yl)cyclopropyl]carbonyl}amino)-N-(1-hydroxy-2-methylpropan-2-yl)-7-methoxy-3,4-dihydro-2H-chromene-2-carboxamide] |
| 1.77 | 109 | COc1ccc2c(c1)O[C@@H](c1cccnc1)C[C@@H]2NC(=O)C1(c2ccc3c(c2)OC(F)(F)O3)CC1 (racemic) [Example 22, rac-1-(2,2-difluoro-1,3-benzodioxol-5-yl)-N-[(2R,4S)-7-methoxy-2-(pyridin-3-yl)-3,4-dihydro-2H-chromen-4-yl]cyclopropanecarboxamide] |
| 2.99 | 105 | CC1(C)C[C@@H](NC(=O)C2(c3ccc4c(c3)OC(F)(F)O4)CC2)c2ccc(Cl)cc2O1 [Example 76, N-[(4R)-7-chloro-2,2-dimethyl-3,4-dihydro-2H-chromen-4-yl]-1-(2,2-difluoro-1,3-benzodioxol-5-yl)cyclopropanecarboxamide] |
